# Literature values, collected in patent publication US20200404921A1, “SOIL TREATMENT WITH METAM SALTS AND ONE OR MORE OF CALCIUM THIOSULFATE, CALCIUM CHLORIDE AND CALCIUM NITRATE” (Tessenderlo Kerley, Inc., priority 2018, published 2020).
# Experiments:
# [1] = more soluble than gypsum
# soilborne disease = conditions: about 40 gallons of metam sodium per acre (190 Kg of active ingredient/ha), commercial conditions
Structure (SMILES),solubility relative to gypsum [1] [times],reduction of certain soilborne disease (soilborne disease) [%]
O=S([O-])([O-])=S.[Ca+2] [calcium thiosulfate],125,–
"CNC(=S)S [metam sodium, sodium methyldithiocarbamate]",–,~70
